From patent US20220033405A1, “PHARMACEUTICAL COMPOSITION FOR PREVENTING OR TREATING CANCER CONTAINING PLK1 INHIBITOR AS ACTIVE INGREDIENT” (NATIONAL CANCER CENTER, priority 2018, published 2022)

How the values were obtained:
[1] = test system: HepG2 orthotopic xenograft; assay: Liver cancer orthotopic xenograft model (HepG2), 5 and 20 mg/kg; format: in vivo, BalB/c nude mice; settings: M2 5 and 20 mg/kg i.p. once every two days, 10 treatments for 3 weeks
Experimental: Another experiment was performed on the same liver cancer cell line by varying the experimental method. 5×10^6 HepG2 cells were injected into the backs of BalB/c nude mice, and when a sufficient cancer tissue was formed about 3 weeks later, the tissue was removed, uniformly cut into 1 mm^3, and transplanted into the right median lobe of the liver by excising the abdomen within 1 cm.
Small spots were confirmed on the MRI image about 10 days after transplanting the liver cancer tissue into 20 BalB/C nude mice by the above method, so that rodents with well-established liver cancer were divided into 3 groups (about 50 to 60%) (see FIG. 21A), a control and a hit (M2) material at 5 mg/kg and 20 mg/kg were injected into the abdominal cavity once every two days using less than 1.5% DMSO as a solvent (vehicle), and once a week, MRI images were used to select (follow up) rodents with constant tissue growth. Then, in a state in which the rapidly growing cancer tissue was 1 cm or less, the cancer tissue was observed after sacrificing the mice (10 treatments for 3 weeks).

[2] = test system: SNU449 human liver cancer cells; assay: Reactivity of M2 variants in SNU449; format: cell-based
Experimental: To examine the ability of the compound to inhibit the growth of the breast cancer cell line, the compounds was treated at each indicated μM concentration 1 and 3 days after cell attachment, and the control was treated with a 0.1% solvent (DMSO). After another two days, the cell lines that were attached to the culture plate and grew were rinsed with 1×PBS and treated with 4% paraformaldehyde at room temperature for 10 minutes to fix the cells. Then, after cells were rinsed twice with PBS, the fixed cells were treated with a 0.5% Triton X-100 solution and reacted at room temperature for 15 minutes, rinsed another three times with PBS, and then treated with a DAPI reagent at 0.5 μg/ml, and reacted at 37° C. for 10 minutes to stain the cell nuclei. After the cells were additionally rinsed once with PBS, cells stained with DAPI were photographed by Cytation 3, and the resulting images were analyzed with Gen5 software (Biotek, USA). Meanwhile, cells that grew in a floating manner without being attached to the culture plate were treated with a 4% paraformaldehyde solution, reacted at room temperature for 10 minutes to fix the cells, and then photographed in a bright field by Cytation3, and the resulting images were analyzed by Gen5 software (Biotek, USA).
To analyze the ability to inhibit the growth of liver cancer cell lines, 6.6×10^3 HepG2 cells per well, 1×10^3 cells of each of Hep3B, SNU-475, and SNU-449 per well, and 2×10^3 SNU-387 cells per well were aliquoted in a 96-well plate, cultured in the same manner as described above, treated with Compound 2 (M2), Compound 3 (M4), Compound 4 (M21), Compound 5 (M23), and Compound 6 (M25), and then the ability to inhibit the growth of cells was analyzed.

HepG2 cells = assay: Cell viability after treatment (Hoechst 33342); format: cell-based; settings: HepG2, various concentrations, two treatments 48 hours apart
Experimental: HepG2 cells, a hepatocellular carcinoma cell line, were plated with 4 to 6 replications at each hit compound concentration in a 96-well microtiter plate supplemented with a culture medium. The hit compound dissolved in DMSO was added the next day according to the design of experiments, and the number of seeded cells was determined by the cell density reaching 80% on the final day of the protocol treated as a cell control. After 24 hours of cell seeding, cells were treated with hit compounds (M2 and BI2536) at various concentrations, and 48 hours after primary treatment, the medium was aspirated and then secondary treatment was performed. After 48 hours, cell nuclei were visualized by 2.5 μM Hoechst 33342 staining at 37° C. for 30 minutes, then the medium was aspirated and washed with a fresh medium. The plate was read using Cytation™ 3 (BioTek, USA), the cell viability was analyzed, and the results were presented as a relative percentage of viable cells after treatment with the hit compound compared to the control treatment.

Cn1c2nc(=O)[nH]c(=O)c-2nc2ccccc21 [Compound 2, 10-methyl-2H,3H,4H,10H-benzo[g]pteridine-2,4-dione]
volume of the cancer tissue [1]: reduced remarkably as the dose of M2 was increased
weight of the cancer tissue [1]: reduced remarkably as the dose of M2 was increased
number of cancer cells [2]: the number of cancer cells was remarkably reduced in a dose-dependent manner
cell viability (HepG2 cells): the relatively less the cell viability became
